Reference: ChEMBL document CHEMBL3259560, “Synthesis of xanthone derivatives based on α-mangostin and their biological evaluation for anti-cancer agents” (Bioorg Med Chem Lett, 2014)
≈ marks a conversion by molar mass, not a printed value.

Key:
[1] = Kinetic solubility of the compound in water containing 5% DMSO at pH 6.8; assay type: physicochemical; settings: read-out: Kinetic_solubility
MDA-MB-231 = assay: Cytotoxicity against human MDA-MB-231 cells assessed as inhibition of cell proliferation after 48 hrs by XTT assay; assay type: functional, cell-based; settings: MDA-MB-231, 48 h
SW-620 = assay: Cytotoxicity against human SW620 cells assessed as inhibition of cell proliferation after 48 hrs by XTT assay; assay type: functional, cell-based; settings: SW-620, 48 h
NCI-H460 = assay: Cytotoxicity against human NCI-H460 cells assessed as inhibition of cell proliferation after 48 hrs by XTT assay; assay type: functional, cell-based; settings: NCI-H460, 48 h
ASPC1 = assay: Cytotoxicity against human AsPC1 cells assessed as inhibition of cell proliferation after 48 hrs by XTT assay; assay type: functional, cell-based; settings: ASPC1, 48 h
[2] = Cytotoxicity against mouse B16F10 cells assessed as inhibition of cell proliferation after 48 hrs by XTT assay; assay type: functional, cell-based; settings: B16-F10, 48 h

For `CC(C)=CCc1c(O)cc2oc3cc(O)c(O)c(CC=C(C)C)c3c(=O)c2c1O`, the solubility kinetic [1] was 94 µM (≈ 37.3 µg/mL), the IC50 (MDA-MB-231) was 5.87 µM and the IC50 (SW-620) was 5.69 µM. It also gave an IC50 (NCI-H460) of 4.48 µM and an IC50 (ASPC1; read-out: IC50) of 5.92 µM.

In the case of `COc1c(OC(C)=O)cc2oc3cc(O)c(CC=C(C)C)c(O)c3c(=O)c2c1CC=C(C)C`, the solubility kinetic [1] is reported as 148 µM (≈ 67 µg/mL), the IC50 (MDA-MB-231) is reported as 12.9 µM and the IC50 (SW-620) is reported as 10.9 µM. The IC50 (NCI-H460) was 12.6 µM, the IC50 [2] was 13.1 µM and the IC50 (ASPC1; read-out: IC50) was 13.9 µM.

For `COc1c(OCC(=O)O)cc2oc3cc(O)c(CC=C(C)C)c(O)c3c(=O)c2c1CC=C(C)C`, the IC50 (MDA-MB-231) was > 100 µM, the IC50 (SW-620) was 46.6 µM and the IC50 (NCI-H460) was 54.6 µM. It also gave an IC50 [2] of 28.6 µM and an IC50 (ASPC1; read-out: IC50) of 52.8 µM.

For `COc1c(OCC(=O)O)cc2oc3cc(OCC(=O)O)c(CC=C(C)C)c(O)c3c(=O)c2c1CC=C(C)C`, the IC50 (MDA-MB-231) was > 100 µM, the IC50 (SW-620) was > 100 µM and the IC50 (NCI-H460) was > 100 µM. For the same compound, the IC50 [2] was 95.8 µM and the IC50 (ASPC1; read-out: IC50) was > 100 µM.

For `C=CCOc1cc2oc3cc(O)c(CC=C(C)C)c(O)c3c(=O)c2c(CC=C(C)C)c1OC`, the solubility kinetic [1] was 149 µM (≈ 67.1 µg/mL), the IC50 (MDA-MB-231) was 17.9 µM and the IC50 (SW-620) was 12.1 µM. The IC50 (NCI-H460) was 12.2 µM, the IC50 [2] was 16.5 µM and the IC50 (ASPC1; read-out: IC50) was 21.3 µM.

`COc1c(OS(=O)(=O)C(F)(F)F)cc2oc3cc(OS(=O)(=O)C(F)(F)F)c(CC=C(C)C)c(O)c3c(=O)c2c1CC=C(C)C` showed an IC50 (MDA-MB-231) of 16.9 µM, an IC50 (SW-620) of 9.01 µM and an IC50 (NCI-H460) of 22.4 µM. The IC50 [2] was 15.3 µM and the IC50 (ASPC1; read-out: IC50) was 13.8 µM.

For `C=CCOc1cc2oc3cc(OC)c(CC=C(C)C)c(O)c3c(=O)c2c(CC=C(C)C)c1OC`, the IC50 (MDA-MB-231) was > 100 µM, the IC50 (SW-620) was > 100 µM and the IC50 (NCI-H460) was > 100 µM. For the same compound, the IC50 [2] was > 100 µM and the IC50 (ASPC1; read-out: IC50) was > 100 µM.

`C=CCOc1cc2oc3cc(OCC=C)c(OC)c(CC=C(C)C)c3c(=O)c2c(OC)c1CC=C(C)C` gave an IC50 (MDA-MB-231) of 28 µM, an IC50 (SW-620) of 44.6 µM and an IC50 (NCI-H460) of 14.6 µM. The IC50 [2] was 41 µM and the IC50 (ASPC1; read-out: IC50) was 25.8 µM.

Compound `COc1c(O)cc2oc3cc(O)c(CC=C(C)C)c(OC)c3c(=O)c2c1CC=C(C)C` has a solubility kinetic [1] of 104 µM (≈ 44.1 µg/mL), an IC50 (MDA-MB-231) of 20.8 µM and an IC50 (SW-620) of 18.2 µM. For the same compound, the IC50 (NCI-H460) was 10.8 µM, the IC50 [2] was 16.6 µM and the IC50 (ASPC1; read-out: IC50) was 13.9 µM.

For `COc1ccc2oc3cc(O)c(CCC(C)C)c(O)c3c(=O)c2c1CCC(C)C`, the IC50 (MDA-MB-231) was > 100 µM, the IC50 (SW-620) was > 100 µM and the IC50 (NCI-H460) was > 100 µM. For the same compound, the IC50 [2] was > 100 µM and the IC50 (ASPC1; read-out: IC50) was > 100 µM.

In the case of `COc1ccc2oc3ccc(CCC(C)C)c(O)c3c(=O)c2c1CCC(C)C`, the IC50 (MDA-MB-231) is reported as > 100 µM, the IC50 (SW-620) is reported as > 100 µM and the IC50 (NCI-H460) is reported as > 100 µM. For the same compound, the IC50 [2] was > 100 µM and the IC50 (ASPC1; read-out: IC50) was > 100 µM.

Work on `COc1c(N)cc2oc3ccc(CCC(C)C)c(O)c3c(=O)c2c1CCC(C)C` yielded a solubility kinetic [1] of 138 µM (≈ 54.9 µg/mL), an IC50 (MDA-MB-231) of 30.9 µM and an IC50 (SW-620) of 15.9 µM. The IC50 (NCI-H460) was 17.6 µM, the IC50 [2] was 14.4 µM and the IC50 (ASPC1; read-out: IC50) was 31.3 µM.

In the case of `COc1c(O)cc2oc3cc(O)c(CCC(C)C)c(O)c3c(=O)c2c1CCC(C)C`, the solubility kinetic [1] is reported as 78 µM (≈ 32.3 µg/mL), the IC50 (MDA-MB-231) is reported as 4.91 µM and the IC50 (SW-620) is reported as 6.42 µM. It also gave an IC50 (NCI-H460) of 4.17 µM, an IC50 [2] of 6.54 µM and an IC50 (ASPC1; read-out: IC50) of 4.64 µM.

`COc1c(O)cc2oc3c([N+](=O)[O-])c(O)c(CCC(C)C)c(O)c3c(=O)c2c1CCC(C)C` showed a solubility kinetic [1] of 339 µM (≈ 156 µg/mL), an IC50 (MDA-MB-231) of 29 µM and an IC50 (SW-620) of 22.6 µM. The IC50 (NCI-H460) was 16.8 µM and the IC50 (ASPC1; read-out: IC50) was 31.8 µM.

In the case of `COc1c(O)cc2oc3c(N)c(O)c(CCC(C)C)c(O)c3c(=O)c2c1CCC(C)C`, the IC50 (MDA-MB-231) is reported as 17.6 µM, the IC50 (SW-620) is reported as 6.24 µM and the IC50 (NCI-H460) is reported as 15.1 µM. For the same compound, the IC50 [2] was 12.3 µM and the IC50 (ASPC1; read-out: IC50) was 13 µM.

With `COc1c(O)cc2oc3c(Cl)c(O)c(CCC(C)C)c(O)c3c(=O)c2c1CCC(C)C` the solubility kinetic [1] was 381 µM (≈ 171 µg/mL), the IC50 (MDA-MB-231) was 10.1 µM and the IC50 (SW-620) was 9.59 µM. It also gave an IC50 (NCI-H460) of 9.96 µM, an IC50 [2] of 12.4 µM and an IC50 (ASPC1; read-out: IC50) of 19.3 µM.

In the case of `C#CCOc1c(O)cc2oc3cc(O)c(CC=C(C)C)c(O)c3c(=O)c2c1CC=C(C)C`, the IC50 (MDA-MB-231) is reported as > 100 µM, the IC50 (SW-620) is reported as > 100 µM and the IC50 (NCI-H460) is reported as > 100 µM. The IC50 (ASPC1; read-out: IC50) was > 100 µM.

With `CC(C)=CCc1c(O)cc2oc3cc(O)c(OCc4cn(CC(=O)OC(C)(C)C)nn4)c(CC=C(C)C)c3c(=O)c2c1O` the IC50 (MDA-MB-231) was > 100 µM, the IC50 (SW-620) was > 100 µM and the IC50 (NCI-H460) was > 100 µM. For the same compound, the IC50 (ASPC1; read-out: IC50) was > 100 µM.

In the case of `C=CCOc1cc2oc3cc(OCC=C)c(OC)c(CC=C(C)C)c3c(=O)c2c(O)c1CC=C(C)C`, the IC50 (MDA-MB-231) is reported as > 100 µM, the IC50 (SW-620) is reported as > 100 µM and the IC50 (NCI-H460) is reported as > 100 µM. For the same compound, the IC50 [2] was > 100 µM and the IC50 (ASPC1; read-out: IC50) was > 100 µM.

In the case of `COc1c(O)cc2oc3cc4c(c(O)c3c(=O)c2c1CC=C(C)C)CCC(C)(C)O4`, the IC50 (MDA-MB-231) is reported as > 100 µM, the IC50 (SW-620) is reported as > 100 µM and the IC50 (NCI-H460) is reported as > 100 µM. The IC50 [2] was > 100 µM and the IC50 (ASPC1; read-out: IC50) was > 100 µM.

In the case of `COc1c(OC(C)=O)cc2oc3cc(OC(C)=O)c(CC=C(C)C)c(O)c3c(=O)c2c1CC=C(C)C`, the solubility kinetic [1] is reported as 122 µM (≈ 60.3 µg/mL), the IC50 (MDA-MB-231) is reported as 17.4 µM and the IC50 (SW-620) is reported as 22.7 µM. It also gave an IC50 (NCI-H460) of 12.5 µM, an IC50 [2] of 15.1 µM and an IC50 (ASPC1; read-out: IC50) of 14.2 µM.

With `COc1cccc2c1C(=O)c1c(O)c3c(c(O)c1C2=O)C[C@@](O)(C(=O)CO)C[C@@H]3O[C@H]1C[C@H](N)[C@H](O)[C@H](C)O1` [DOXORUBICIN] the IC50 (MDA-MB-231) was 0.98 µM, the IC50 (SW-620) was 0.12 µM and the IC50 (NCI-H460) was 0.08 µM. It also gave an IC50 [2] of 0.12 µM and an IC50 (ASPC1) of 1.87 µM.

For `COc1c(O)cc2oc3cc4c(c(O)c3c(=O)c2c1CC=C(C)C)C=CC(C)(C)O4` [MANGOSTANIN], the IC50 (MDA-MB-231) was 21.1 µM, the IC50 (SW-620) was 26.1 µM and the IC50 (NCI-H460) was 19.7 µM. For the same compound, the IC50 [2] was 26.2 µM and the IC50 (ASPC1; read-out: IC50) was 25.5 µM.

With `COc1c(O)cc2oc3cc(O)c(CC=C(C)C)c(O)c3c(=O)c2c1CC=C(C)C` [MANGOSTIN] the solubility kinetic [1] was 20 µM (≈ 8.21 µg/mL), the IC50 (MDA-MB-231) was 3.04 µM and the IC50 (SW-620) was 2.97 µM. For the same compound, the IC50 (NCI-H460) was 3.23 µM, the IC50 [2] was 3.23 µM and the IC50 (ASPC1; read-out: IC50) was 4.02 µM.
